Measured values: the NIST ThermoML archive (doi:10.1021/je060271a)
± gives the expanded uncertainty stated by the source.

Conditions: 303.15 K, Liquid, Vibrating tube method

Measured: mass density

CCCCCC(=O)OCC(COC(=O)CCCCC)(COC(=O)CCCCC)COC(=O)CCCCC [pentaerythritol tetrahexanoate]
990.2 ± 1.2 kg/m3: 2749.6 kPa | 2823.5 kPa | 2846.9 kPa | 2870.6 kPa | 2923.3 kPa | 2948 kPa | 3001.9 kPa
989.2 ± 1.2 kg/m3: 1103.9 kPa | 1123.5 kPa | 1223.8 kPa | 1245.1 kPa | 1269.3 kPa | 1280 kPa | 1291.5 kPa | 1305.2 kPa | 1316.3 kPa | 1353.7 kPa | 1365.5 kPa | 1377.5 kPa
991 ± 1.2 kg/m3: 4056 kPa | 4084.6 kPa | 4113.5 kPa | 4146.8 kPa
989.5 ± 1.2 kg/m3: 1719.8 kPa | 1738.4 kPa | 1753.5 kPa | 1784.2 kPa | 1854.3 kPa | 1870.3 kPa | 1903.5 kPa
990 ± 1.2 kg/m3: 2468.5 kPa | 2489.7 kPa | 2511 kPa | 2558.6 kPa | 2580.8 kPa | 2603.5 kPa | 2631.6 kPa | 2676.9 kPa | 2699.1 kPa | 2726.5 kPa
990.8 ± 1.2 kg/m3: 3810.6 kPa | 3844.5 kPa | 3872.4 kPa | 3901 kPa
990.9 ± 1.2 kg/m3: 3752.7 kPa | 3935 kPa | 3963.4 kPa | 3991.9 kPa | 4026.4 kPa
990.3 ± 1.2 kg/m3: 2972.9 kPa | 3026.2 kPa | 3050.9 kPa | 3075.6 kPa | 3105.6 kPa | 3130.3 kPa
989.1 ± 1.2 kg/m3: 1039.1 kPa | 1082 kPa | 1093.8 kPa | 1156.2 kPa | 1166.8 kPa | 1179.7 kPa | 1189.9 kPa | 1200.7 kPa | 1210.9 kPa | 1234.4 kPa | 1258.2 kPa | 1327.8 kPa
989.9 ± 1.2 kg/m3: 2337.4 kPa | 2380.4 kPa | 2401.1 kPa | 2443 kPa | 2536.5 kPa
991.6 ± 1.2 kg/m3: 4939.3 kPa | 4973.4 kPa | 5037.1 kPa | 5101.8 kPa
991.5 ± 1.2 kg/m3: 4876.2 kPa | 4893.7 kPa | 4923.8 kPa | 4955.2 kPa | 4988.8 kPa | 5003.5 kPa | 5086.4 kPa
990.5 ± 1.2 kg/m3: 3378.1 kPa | 3404.7 kPa | 3517.7 kPa | 3545.6 kPa | 3634.2 kPa
991.1 ± 1.2 kg/m3: 4175 kPa
990.6 ± 1.2 kg/m3: 3346.9 kPa | 3430.9 kPa | 3490.4 kPa | 3578.7 kPa
989.3 ± 1.2 kg/m3: 1339.4 kPa | 1391.9 kPa
989 ± 1.2 kg/m3: 951.9 kPa | 967.6 kPa | 1009.3 kPa | 1019.8 kPa | 1029.2 kPa | 1048.9 kPa | 1061.2 kPa | 1072 kPa | 1113.5 kPa | 1135.9 kPa | 1146.3 kPa
990.7 ± 1.2 kg/m3: 3457.8 kPa | 3606.3 kPa | 3662.6 kPa | 3690.5 kPa | 3724.1 kPa | 3781.8 kPa
988.9 ± 1.2 kg/m3: 941.9 kPa | 958.5 kPa | 978.3 kPa | 988.8 kPa | 998 kPa
991.7 ± 1.2 kg/m3: 5021.5 kPa | 5052.1 kPa | 5067.7 kPa | 5117.7 kPa
989.7 ± 1.2 kg/m3: 2108.2 kPa | 2167.4 kPa | 2248.4 kPa
989.6 ± 1.2 kg/m3: 1768.6 kPa | 1803 kPa | 1886.5 kPa | 1923.6 kPa | 2090.4 kPa
990.1 ± 1.2 kg/m3: 2649.5 kPa | 2772.3 kPa | 2795.2 kPa | 2899.1 kPa
989.8 ± 1.2 kg/m3: 2229.2 kPa | 2292.3 kPa | 2312.5 kPa | 2355.8 kPa | 2421.9 kPa
990.4 ± 1.2 kg/m3: 3156 kPa | 3181.3 kPa | 3212.3 kPa | 3237.8 kPa | 3263.7 kPa | 3294.7 kPa | 3320.9 kPa
